From US10597388B2, “Pyridazinone herbicides” (FMC CORPORATION, priority 2014, dated 2020)

Experiments:
Assay in all cases: Test C greenhouse herbicide test, pre- and postemergence
Format in all cases: in vivo
[1] = system: blackgrass (Alopecurus myosuroides)
Source text: (§1) Seeds of plant species selected from blackgrass (Alopecurus myosuroides), ryegrass, Italian (Italian ryegrass, Lolium multiflorum), wheat (winter wheat, Triticum aestivum), galium (catchweed bedstraw, Galium aparine), corn (Zea mays), large crabgrass, large (large crabgrass, Digitaria sanguinalis), foxtail, giant (giant foxtail, Setaria faberii), johnsongrass (Sorghum halepense), lambsquarters (Chenopodium album), morningglory (Ipomoea coccinea), nutsedge, yellow (yellow nutsedge, Cyperus esculentus), pigweed (Amaranthus retroflexus), ragweed (common ragweed, Ambrosia elatior), soybean (Glycine max), barnyardgrass (Echinochloa crus-galli), oilseed rape (Brassica napus), waterhemp (common waterhemp, Amaranthus rudis), and velvetleaf (Abutilon theophrasti) were planted into a blend of loam soil and sand and treated preemergence with test chemicals formulated in a non-phytotoxic solvent mixture which included a surfactant.
(§2) At the same time, plants selected from these crop and weed species and also chickweed (common chickweed, Stellaria media), kochia (Kochia scoparia), and oat, wild (wild oat, Avena fatua), were planted in pots containing Redi-Earth® planting medium (Scotts Company, 14111 Scottslawn Road, Marysville, Ohio 43041) comprising spaghnum peat moss, vermiculite, wetting agent and starter nutrients and treated with postemergence applications of test chemicals formulated in the same manner. Plants ranged in height from 2 to 18 cm (1- to 4-leaf stage) for postemergence treatments. Treated plants and controls were maintained in a greenhouse for 13 to 15 d, after which time all species were compared to controls and visually evaluated. Plant response ratings, summarized in Table C, are based on a scale of 0 to 100 where 0 is no effect and 100 is complete control. A dash (-) response means no test result.

[2] = system: waterhemp (common waterhemp, Amaranthus rudis)
Source text: as §1, §2

[3] = system: pigweed (Amaranthus retroflexus)
Source text: as §1, §2

[4] = system: velvetleaf (Abutilon theophrasti)
Source text: as §1, §2

[5] = system: ryegrass, Italian (Italian ryegrass, Lolium multiflorum)
Source text: as §1, §2

[6] = system: crabgrass, large (large crabgrass, Digitaria sanguinalis)
Source text: as §1, §2

[7] = system: barnyardgrass (Echinochloa crus-galli)
Source text: as §1, §2

soybean (Glycine max) = system: soybean (Glycine max)
Source text: as §1, §2

[8] = system: johnsongrass (Sorghum halepense)
Source text: as §1, §2

[9] = system: lambsquarters (Chenopodium album)
Source text: as §1, §2

[10] = system: ragweed (common ragweed, Ambrosia elatior)
Source text: as §1, §2

[11] = system: nutsedge, yellow (yellow nutsedge, Cyperus esculentus)
Source text: as §1, §2

[12] = system: wheat (winter wheat, Triticum aestivum)
Source text: as §1, §2

[13] = system: morningglory (Ipomoea coccinea)
Source text: as §1, §2

corn (Zea mays) = system: corn (Zea mays)
Source text: as §1, §2

[14] = Postemergence, 8 g ai/ha, scale 0 to 100 (0 no effect, 100 complete control)
[15] = Postemergence, 16 g ai/ha, scale 0 to 100 (0 no effect, 100 complete control)
[16] = Postemergence, 31 g ai/ha, 0 to 100 scale (0 no effect, 100 complete control)
[17] = Preemergence, 8 g ai/ha, scale 0 to 100, 0 is no effect, 100 is complete control
[18] = Preemergence, 16 g ai/ha, scale 0 to 100, 0 is no effect, 100 is complete control
[19] = Preemergence, 31 g ai/ha, scale 0 to 100, 0 is no effect, 100 is complete control
[20] = Preemergence, 62 g ai/ha, scale 0 to 100, 0 is no effect, 100 is complete control
[21] = postemergence, 62 g ai/ha, scale 0 to 100, 0 no effect, 100 complete control

Cc1nn(C)c(=O)c(-c2c(C)sc3c(C)cc(Cl)cc23)c1O [Compound 35]
Plant response rating, Blackgrass [1, 14]: 0 | Plant response rating, Blackgrass [1, 15]: 5 | Blackgrass plant response rating [1, 16]: 15 | Plant response rating, Blackgrass [1, 17]: 5 | Plant response rating, Blackgrass [1, 18]: 40 | Plant response rating, Blackgrass [1, 19]: 50 | Plant response rating, Blackgrass [1, 20]: 55 | Blackgrass plant response rating [1, 21]: 45 | Plant response rating, Waterhemp [2, 14]: 0 | Plant response rating, Waterhemp [2, 15]: 30 | Waterhemp plant response rating [2, 16]: 25 | Plant response rating, Waterhemp [2, 18]: 40 | Plant response rating, Waterhemp [2, 19]: 40 | Plant response rating, Waterhemp [2, 20]: 50 | Waterhemp plant response rating [2, 21]: 45 | Plant response rating, Pigweed [3, 14]: 35 | Plant response rating, Pigweed [3, 15]: 25 | Pigweed plant response rating [3, 16]: 60 | Plant response rating, Pigweed [3, 18]: 75 | Plant response rating, Pigweed [3, 19]: 75 | Plant response rating, Pigweed [3, 20]: 80 | Pigweed plant response rating [3, 21]: 55 | Plant response rating, Velvetleaf [4, 14]: 60 | Plant response rating, Velvetleaf [4, 15]: 75 | Velvetleaf plant response rating [4, 16]: 100 | Plant response rating, Velvetleaf [4, 18]: 0 | Plant response rating, Velvetleaf [4, 19]: 40 | Plant response rating, Velvetleaf [4, 20]: 85 | Velvetleaf plant response rating [4, 21]: 100 | Plant response rating, Ryegrass, Italian [5, 14]: 10 | Plant response rating, Ryegrass, Italian [5, 15]: 30 | Ryegrass, Italian plant response rating [5, 16]: 35 | Plant response rating, Ryegrass, Italian [5, 18]: 50 | Plant response rating, Ryegrass, Italian [5, 19]: 65 | Plant response rating, Ryegrass, Italian [5, 20]: 70 | Ryegrass, Italian plant response rating [5, 21]: 55 | Plant response rating, Crabgrass, Large [6, 14]: 5 | Plant response rating, Crabgrass, Large [6, 15]: 5 | Crabgrass, Large plant response rating [6, 16]: 20 | Plant response rating, Crabgrass, Large [6, 17]: 0 | Plant response rating, Crabgrass, Large [6, 18]: 0 | Plant response rating, Crabgrass, Large [6, 19]: 5 | Plant response rating, Crabgrass, Large [6, 20]: 5 | Crabgrass, Large plant response rating [6, 21]: 20 | Plant response rating, Barnyardgrass [7, 14]: 10 | Plant response rating, Barnyardgrass [7, 15]: 10 | Barnyardgrass plant response rating [7, 16]: 20 | Plant response rating, Barnyardgrass [7, 17]: 0 | Plant response rating, Barnyardgrass [7, 18]: 5 | Plant response rating, Barnyardgrass [7, 19]: 5 | Plant response rating, Barnyardgrass [7, 20]: 25 | Barnyardgrass plant response rating [7, 21]: 20 | Plant response rating, Soybean (soybean (Glycine max); [14]): 0 | Plant response rating, Soybean (soybean (Glycine max); [15]): 0 | Soybean plant response rating (soybean (Glycine max); [16]): 0 | Plant response rating, Soybean (soybean (Glycine max); [18]): 0 | Plant response rating, Soybean (soybean (Glycine max); [19]): 0 | Plant response rating, Soybean (soybean (Glycine max); [20]): 0 | Soybean plant response rating (soybean (Glycine max); [21]): 5 | Plant response rating, Johnsongrass [8, 14]: 10 | Plant response rating, Johnsongrass [8, 15]: 15 | Johnsongrass plant response rating [8, 16]: 20 | Plant response rating, Johnsongrass [8, 18]: 0 | Plant response rating, Johnsongrass [8, 19]: 10 | Plant response rating, Johnsongrass [8, 20]: 10 | Johnsongrass plant response rating [8, 21]: 20 | Plant response rating, Lambsquarters [9, 14]: 35 | Plant response rating, Lambsquarters [9, 15]: 75 | Lambsquarters plant response rating [9, 16]: 80 | Plant response rating, Lambsquarters [9, 18]: 5 | Plant response rating, Lambsquarters [9, 19]: 20 | Plant response rating, Lambsquarters [9, 20]: 100 | Lambsquarters plant response rating [9, 21]: 70 | Plant response rating, Ragweed [10, 14]: 0 | Plant response rating, Ragweed [10, 15]: 0 | Ragweed plant response rating [10, 16]: 25 | Plant response rating, Ragweed [10, 18]: 0 | Plant response rating, Ragweed [10, 19]: 5 | Plant response rating, Ragweed [10, 20]: 40 | Ragweed plant response rating [10, 21]: 40 | Plant response rating, Nutsedge, Yellow [11, 14]: 45 | Plant response rating, Nutsedge, Yellow [11, 15]: 60 | Nutsedge, Yellow plant response rating [11, 16]: 75 | Plant response rating, Nutsedge, Yellow [11, 18]: 20 | Plant response rating, Nutsedge, Yellow [11, 19]: 20 | Plant response rating, Nutsedge, Yellow [11, 20]: 40 | Nutsedge, Yellow plant response rating [11, 21]: 85 | Plant response rating, Wheat [12, 14]: 0 | Plant response rating, Wheat [12, 15]: 0 | Wheat plant response rating [12, 16]: 0 | Plant response rating, Wheat [12, 18]: 0 | Plant response rating, Wheat [12, 19]: 0 | Plant response rating, Wheat [12, 20]: 5 | Wheat plant response rating [12, 21]: 5 | Plant response rating, Morningglory [13, 14]: 100 | Plant response rating, Morningglory [13, 15]: 100 | Morningglory plant response rating [13, 16]: 100 | Plant response rating, Morningglory [13, 18]: 25 | Plant response rating, Morningglory [13, 19]: 25 | Plant response rating, Morningglory [13, 20]: 98 | Morningglory plant response rating [13, 21]: 100 | Plant response rating, Corn (corn (Zea mays); [14]): 0 | Plant response rating, Corn (corn (Zea mays); [15]): 0 | Corn plant response rating (corn (Zea mays); [16]): 5 | Plant response rating, Corn (corn (Zea mays); [17]): 0 | Plant response rating, Corn (corn (Zea mays); [18]): 0 | Plant response rating, Corn (corn (Zea mays); [19]): 0 | Plant response rating, Corn (corn (Zea mays); [20]): 0 | Corn plant response rating (corn (Zea mays); [21]): 5
